For assay [1], the system named is MHC-II and ICAM-1 on NOD spleenocytes. Briefly: Inhibition of biotinylated BPI binding to NOD spleenocytes by monoclonal antibodies to MHC-II or ICAM-1. Details: species or system mouse. Conditions: mAb 10-3.62 or 3E2 at 5 μg/ml. The procedure:
(§1) Specifically, it was verified that the peptide binds to MHC molecules on live APC. Briefly, spleen cell density-gradient fractions (from mice), or PBL, or APC lines (from humans) were incubated in round bottom 96-well plates with increasing concentrations of individual biotinylated peptides at 37° C., 5% CO2 for 16 hours. Following binding of the BPI to the APC, Avidin-FITC was incubated with the cells on ice for 30 minutes, followed by biotinylated anti-Avidin for 1 hour, then again with Avidin-FITC. For BPI titrations, increasing concentrations (0.1-100 μM) of the biotinylated derivatives in sterile 0.5% BSA-PBS were incubated with the APC for 16 hours as above. […] Three-color analyses used Cy-Chrome or PE-conjugated antibodies to known surface markers of APC that were commercially available. Avidin-FITC and biotinylated anti-Avidin detection of the bound peptide was as previously described in Murray et al., 24 Eur. J. Immunol. 2337-2344 (1994); Murray; 19 Immunology Today 157-163; and Schountz et al., 157 The Journal of Immunology 3893-3901 (1996). […]
However, either purified 10-3.62 (anti-MHC-II) or 3E2 (anti-ICAM-1) were included in the overnight incubation of the spleen cells with the biotinylated BPI. […] Analyses were gated on forward/side scatter dotplots for live lymphocytes and 20,000 events were analyzed for each histogram.

For assay [2], the system named is MHC-II and ICAM-1 molecules on the APC surface. The assay is described as follows: Co-capping of ICAM-1 with MHC-II on APC from i.v. treated NOD mice (fluorescence microscopy). The class given is cell-based, mouse. Conditions: T-depleted spleenocytes from NOD mice 16 hours after i.v. injection of 40 nanomoles; bio-10-3.62/streptavidin. The protocol:
as §1, with “Immunol.” for “Immunol. 2337-2344 (1994); Murray; 19 Immunology Today 157-163; and Schountz et al., 157 The Journal of Immunology 3893-3901 (1996).”
Further support for simultaneous binding of the BPI to MHC-II and ICAM-1 molecules has been observed in co-capping experiments using biotinylated mAb 10-3.62 and streptavidin to cap MHC-II in the presence or absence of the BPI. […] The cells are plated and observed for evidence that a given BPI links ICAM-1 into the MHC-II cap, i.e., by standard fluorescence microscopy and image analysis.

Assay [3] has as its system NOD mice. The assay is described as follows: Lymphocytic infiltration of pancreatic islets (insulitis) in NOD mice, histological scoring. The class given is in vivo, mouse. An excerpt: To evaluate the disease process by immunohistology (see, e.g., FIG. 12A-D), spleen, pancreas, or other target organs, e.g., the CNS for the MDP peptide BPI, or lung for the RSV peptide BPI, were removed from euthanized mice of each group and prepared for histology by fixing in neutral buffered formalin and embedding in paraffin, or snap frozen in O.C.T. medium. For scoring inflammation, minimums of five sections from each mouse were used to assess the blocking affect of a given BPI. For characterization of standard T-cell markers on cellular infiltrates, biotinylated mAb to various cell surface antigens will be incubated individually with the Cryostat sections (2 hours), followed by avidin-alkaline phosphatase (Vector laboratories). Alternatively, cell subsets will be phenotyped by standard flow cytometry methods as described in Murray et al., 24 Eur. J. Immunol. 2337-2344 (1994); Murray; 19 Immunology Today 157-163; and Schountz et al., 157 The Journal of Immunology 3893-3901 (1996). Finally, the students t-test or ANOVA will be used to estimate the statistical significance of differences observed between groups and individual mice.
These studies sought to confirm that the BPI containing the immunodominant GAD65 TCR epitope (EGAD-BPI) was biologically active in vivo and inhibited the development of pancreatic inflammation. Groups of three normal glycemic NOD males (8 weeks old) were immunized with the GAD65 (208-217) peptide in CFA as described in Example 4. The control group received PBS, and separate experimental groups received either the EGAD-BPI, the GAD peptide alone (i.e., the T-cell receptor epitope), or the CD11a peptide alone(i.e., the second signal receptor moiety) by two intravenous injections as described in Example 4. On day 10, the pancreata were removed to 10% PBS-buffered formalin, embedded in paraffin, and five-micron serial sections were examined histologically for mononuclear cell infiltration as previously described by Yoon, et al., Control of Autoimmune Diabetes in NOD Mice by GAD Expression or Suppression in β Cells, 284 Science 1183-1187 (1999), the entirety of which is hereby incorporated by reference.

Assay [4] concerns NOD.Scid mice. The assay is described as follows: NOD.Scid adoptive transfer model of diabetes progression (blood glucose). Conditions: 7 weeks post adoptive transfer; CD4+ T-cells from treated mice co-transferred with CD25-depleted inducer cells. Format: in vivo, mouse.
Method: In another example which tested the diabetes BPI in vivo, 15 million disease-linked lymphocytes (i.e., patient T-cells, or T-cell populations linked to the disease process) were injected with or without T-cells that received the BPI compound (in vivo or in vitro) and were expanded for 24 hours in recombinant IL-2. […] For blocking spontaneous diabetes, five groups of ten female NOD mice (12 weeks of age) were used and monitored for nondiabetic blood glucose levels with a standard glucometer (AccuChek-complete, Roche Diagnostic). Each mouse was labeled and individually monitored for blood glucose levels weekly for the course of the experiment. The five groups received either (a) intravenous (i.v.) injection of the BPI (100 μg in 100 μl endotoxin-free saline/injection) at 8 weeks of age, (b) same dose GAD65 (208-217) epitope alone, (c) same dose CD11a (237-247) peptide alone, or (d) saline alone.
NOD spleen cells from 8 week (non-diabetic) females were used to enrich a CD25-/CTLA4-depleted population by treatment with purified monoclonal antibody (mAb 7D4, PharMingen) followed by low-tox rabbit complement (Cedarlane) (80% depletion of CTLA4+ cells by flow analysis with PE-labeled UC10-4F10-11 mAb; not shown). […] In vitro clonal expansion was with either recombinant IL-2 (R&D systems), or ConA, as described for the ELISPOT experiments. […]

Entries after “also recorded” stand apart in the source; their conditions may differ. Where no end group is shown, it is not given here. [ ]: non-standard residue; d: D form. Ahx = NCCCCCC(=O)O

As to “GAD65(208-217)-[Ac-G-Ac-G-Ac]-CD11a (237-247) (EIAPVFVLLE[Ahx]G[Ahx]G[Ahx]ITDGEATDSG) [EGAD-BPI]”, the “BPI binding in presence of monoclonal antibody to MHC-II or ICAM-1” value was “effectively block binding” in assay [1] and “blocked BPI binding” in assay [1] (listed as BPI). Moreover, in assay [2], the “co-capping of ICAM-1 with MHC-II” value is reported as “exhibited co-capping of ICAM-1 with MUC-II; also recorded: ICAM-1 was co-capped with MHC-II”. For the same substance, the “intact / normal islets without infiltration (grade-0 islets), percentage of islets examined” value in assay [3] (NOD males, GAD65 peptide in CFA, two i.v. injections of 40 nanomoles, day 10) is on record as “Over 95%”. For the same substance, in assay [3] (NOD males, day 10, histology), the “mononuclear cell infiltration of islets (insulitis), in words” value was “clear inhibitory effect; also recorded: predominately intact”. In assay [3] (compared to the PBS control, calculated from % islets at grade 1-4), the inhibition of insulitis was 84%. Besides, the “mice showing hyperglycemia and progression to diabetes” value in assay [4] is given as 40%.

Values taken from patent publication US7786257B2, “Signal-1/signal-2 bifunctional peptide inhibitors” (priority 2000, dated 2010).
